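Method: 48-hour compound exposure of cells in 96-well plates, five concentrations, linear interpolation of endpoints. The concentration for 50% growth inhibition is given as GI50.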 The source made the active and inactive calls. Cut-off read from the data, not from the text of the source: active = GI50 up to about 1.1 µM and inactive = higher.
How the values were obtained:
Test in all cases: inhibition of tumour cell growth, NCI panel, 48 h
MDA-MB-231 = test system: MDA-MB-231
T47D = test system: T47D
NCI/ADR-RES = test system: NCI/ADR-RES
SF-539 = test system: SF-539
HOP-92 = test system: HOP-92
OVCAR-3 = test system: OVCAR-3
SK-OV-3 = test system: SK-OV-3
SNB-19 = test system: SNB-19
BT-549 = test system: BT-549
NCI-H23 = test system: NCI-H23
UO-31 = test system: UO-31
HT-29 = test system: HT-29
UACC-257 = test system: UACC-257
COLO 205 = test system: COLO 205
KM12 = test system: KM12
U-251 = test system: U-251
SW-620 = test system: SW-620
SN12C = test system: SN12C
LOX IMVI = test system: LOX IMVI
HCT-116 = test system: HCT-116
RPMI-8226 = test system: RPMI-8226
SNB-75 = test system: SNB-75
MOLT-4 = test system: MOLT-4
Hs-578T = test system: Hs-578T
786-0 = test system: 786-0
SF-295 = test system: SF-295
SK-MEL-2 = test system: SK-MEL-2
UACC-62 = test system: UACC-62
K562 = test system: K562
M14 = test system: M14
A549 = test system: A549
RXF 393 = test system: RXF 393
NCI-H460 = test system: NCI-H460
CAKI-1 = test system: CAKI-1
IGROV-1 = test system: IGROV-1
MDA-MB-435 = test system: MDA-MB-435
NCI-H226 = test system: NCI-H226
OVCAR-8 = test system: OVCAR-8
CCRF-CEM = test system: CCRF-CEM
MDA-N = test system: MDA-N
NCI-H522 = test system: NCI-H522
HL-60 = test system: HL-60
ACHN = test system: ACHN
PC-3 = test system: PC-3
DU-145 = test system: DU-145
OVCAR-5 = test system: OVCAR-5
SK-MEL-28 = test system: SK-MEL-28
HOP-62 = test system: HOP-62
HCT-15 = test system: HCT-15
SK-MEL-5 = test system: SK-MEL-5
HCC 2998 = test system: HCC 2998
MCF7 = test system: MCF7
EKVX = test system: EKVX
TK-10 = test system: TK-10
SF-268 = test system: SF-268
OVCAR-4 = test system: OVCAR-4
A498 = test system: A498
Malme-3M = test system: Malme-3M

## O=C1C(=CNC(=S)c2ccccc2)C(=O)c2ccccc21
MDA-MB-231
  GI50: 55.2 µM (inactive)
T47D
  GI50: 60.1 µM (inactive)
NCI/ADR-RES
  GI50: 61.5 µM (inactive)
SF-539
  GI50: 58.5 µM (inactive)
HOP-92
  GI50: 40.7 µM (inactive)
OVCAR-3
  GI50: 76 µM (inactive)
SK-OV-3
  GI50: 21.7 µM (inactive)
SNB-19
  GI50: 93.8 µM (inactive)
BT-549
  GI50: 28.1 µM (inactive)
NCI-H23
  GI50: 51.5 µM (inactive)
UO-31
  GI50: 25.8 µM (inactive)
HT-29
  GI50: > 100 µM (inactive)
UACC-257
  GI50: 55.1 µM (inactive)
COLO 205
  GI50: 69.7 µM (inactive)
KM12
  GI50: 62.1 µM (inactive)
U-251
  GI50: 64.9 µM (inactive)
SW-620
  GI50: 55.8 µM (inactive)
SN12C
  GI50: 46.7 µM (inactive)
LOX IMVI
  GI50: 43.1 µM (inactive)
HCT-116
  GI50: 46.7 µM (inactive)
RPMI-8226
  GI50: 25.2 µM (inactive)
SNB-75
  GI50: 58.9 µM (inactive)
MOLT-4
  GI50: 27.5 µM (inactive)
Hs-578T
  GI50: 54 µM (inactive)
786-0
  GI50: 27.5 µM (inactive)
SF-295
  GI50: 91 µM (inactive)
SK-MEL-2
  GI50: 39.5 µM (inactive)
UACC-62
  GI50: 28.8 µM (inactive)
K562
  GI50: 30.1 µM (inactive)
M14
  GI50: 65.6 µM (inactive)
A549
  GI50: 67.5 µM (inactive)
RXF 393
  GI50: 46.7 µM (inactive)
NCI-H460
  GI50: 70.8 µM (inactive)
CAKI-1
  GI50: 71.4 µM (inactive)
IGROV-1
  GI50: 29.4 µM (inactive)
MDA-MB-435
  GI50: 71.8 µM (inactive)
NCI-H226
  GI50: > 100 µM (inactive)
OVCAR-8
  GI50: 54.6 µM (inactive)
CCRF-CEM
  GI50: 25 µM (inactive)
MDA-N
  GI50: 52.7 µM (inactive)
NCI-H522
  GI50: 21 µM (inactive)
HL-60
  GI50: 4.28 µM (inactive)
ACHN
  GI50: 38.9 µM (inactive)
PC-3
  GI50: 63.2 µM (inactive)
DU-145
  GI50: 57.8 µM (inactive)
OVCAR-5
  GI50: > 100 µM (inactive)
SK-MEL-28
  GI50: > 100 µM (inactive)
HOP-62
  GI50: 91.8 µM (inactive)
HCT-15
  GI50: 32.1 µM
SK-MEL-5
  GI50: 58.9 µM (inactive)
HCC 2998
  GI50: 37 µM (inactive)
MCF7
  GI50: 35.2 µM (inactive)
EKVX
  GI50: 60.8 µM (inactive)
TK-10
  GI50: 41.6 µM (inactive)
SF-268
  GI50: 71.8 µM (inactive)
OVCAR-4
  GI50: 38.1 µM (inactive)

## O=C1c2ccccc2-c2c1c(-c1ccc([N+](=O)[O-])cc1)nc1ccc3ccccc3c21
MDA-MB-231
  GI50: > 100 µM (inactive)
T47D
  GI50: > 100 µM (inactive)
NCI/ADR-RES
  GI50: > 100 µM (inactive)
SF-539
  GI50: > 100 µM (inactive)
OVCAR-3
  GI50: > 100 µM (inactive)
SK-OV-3
  GI50: > 100 µM (inactive)
SNB-19
  GI50: > 100 µM (inactive)
BT-549
  GI50: > 100 µM (inactive)
NCI-H23
  GI50: > 100 µM (inactive)
A498
  GI50: > 100 µM (inactive)
UO-31
  GI50: > 100 µM (inactive)
HT-29
  GI50: > 100 µM (inactive)
UACC-257
  GI50: > 100 µM (inactive)
COLO 205
  GI50: > 100 µM (inactive)
KM12
  GI50: > 100 µM (inactive)
U-251
  GI50: > 100 µM (inactive)
SW-620
  GI50: > 100 µM (inactive)
SN12C
  GI50: > 100 µM (inactive)
HCT-116
  GI50: > 100 µM (inactive)
RPMI-8226
  GI50: > 100 µM (inactive)
SNB-75
  GI50: > 100 µM (inactive)
MOLT-4
  GI50: > 100 µM (inactive)
Hs-578T
  GI50: > 100 µM (inactive)
786-0
  GI50: > 100 µM (inactive)
SF-295
  GI50: > 100 µM (inactive)
SK-MEL-2
  GI50: > 100 µM (inactive)
UACC-62
  GI50: > 100 µM (inactive)
K562
  GI50: > 100 µM (inactive)
M14
  GI50: > 100 µM (inactive)
A549
  GI50: > 100 µM (inactive)
NCI-H460
  GI50: > 100 µM (inactive)
CAKI-1
  GI50: > 100 µM (inactive)
MDA-MB-435
  GI50: > 100 µM (inactive)
NCI-H226
  GI50: > 100 µM (inactive)
OVCAR-8
  GI50: > 100 µM (inactive)
CCRF-CEM
  GI50: > 100 µM (inactive)
MDA-N
  GI50: > 100 µM (inactive)
ACHN
  GI50: > 100 µM (inactive)
PC-3
  GI50: > 100 µM (inactive)
DU-145
  GI50: > 100 µM (inactive)
OVCAR-5
  GI50: > 100 µM (inactive)
SK-MEL-28
  GI50: > 100 µM (inactive)
HOP-62
  GI50: > 100 µM (inactive)
HCT-15
  GI50: > 100 µM
HCC 2998
  GI50: > 100 µM (inactive)
MCF7
  GI50: > 100 µM (inactive)
EKVX
  GI50: > 100 µM (inactive)
SF-268
  GI50: > 100 µM (inactive)
OVCAR-4
  GI50: > 100 µM (inactive)
Malme-3M
  GI50: > 100 µM (inactive)
